Where two headings read alike, the source gives them in different places.
How the values were obtained:
Type in all cases: cell-based, Human
[1] = system: Caspase 3/7 activities in HT-29 cells; experiment: Caspase 3/7 activity assay, HT-29; conditions: HT-29, 72 h
Method: (§1) Based on this, the energy restriction mediated anticancer activity of the new coumarin tagged aminothiazole derivatives was investigated. The expression levels of PARP, p-Akt, Akt, p-AMPK, AMPK, β-TrCP, LC3A/B-I, LC3A/B-II, caspase-3, cyclin D1, and Bcl-2 proteins were determined by Western blot analysis after 72 h treatment of HT-29 and HCT116 at different concentrations based on the IC50 values of each compound (Fig. 3A,B). […] Moreover, the treatment with 9b and 9f induced caspase 3/7 activation, which was detected by caspase 3/7 activity assay and confirmed by Western blot. The activation of caspases was significant in 9b in both cell lines and significant with 9f in HCT116 cells only and minimal in HT-29 cells (Fig. 3C,D). On the other hand, both 9b and 9f induced dose-dependent proteolytic processing of PARP. […] Besides, the protein expression level of the anti-apoptotic protein, Bcl-2, was reduced in HCT116 upon treatment with both compounds.
(§2) Caspase-3/7 activities in HT-29 and HCT116 cells treated with candidate compounds were measured using Caspase-Glo 3/7 assay kit (Promega, Madison, WI, USA) following the manufacturer’s instructions. […] 50 µL of lysate and 50 µL of caspase substrate were added to a white opaque 96-well plate, and the luminescence was measured by Varioskan Flash multimode reader (Thermo-Scientific, Vantaa, Finland)

HCT116 = experiment: Western blot analysis, HCT116; conditions: for expression of LC3A-II and LC3B-II: HCT116 (CRC cell lines)
Method: as §1
(§3) Following 72 h of treatment, cells were lysed and the extracted proteins were quantified using DC protein assay kit (Bio-Rad, Hercules, CA, USA) following the manufacturer’s instructions. Proteins were resolved on 8% or 12% SDS-poly-acrylamide gels, then transferred onto a nitrocellulose membrane using a semi-dry transfer cell. The membranes were blocked in TBS-T containing 5% non-fat milk for 1 h and incubated overnight at 4 °C overnight with indicated primary antibodies (Cell Signaling Technologies, Beverly, MA, USA) and then incubated with goat anti-mouse or anti-rabbit secondary antibody (Cell Signaling Technologies, Beverly, MA, USA) for 1 h at room temperature. Detection was done using chemiluminescence substrate (Bio-Rad, Hercules, CA, USA). β-actin (Cell Signaling Technologies, Beverly, MA, USA) was used as a loading control.
(§4) The blots were captured with ChemiDoc Imaging System (Bio-Rad, Hercules, CA, USA) and bands were visualized with the Image Lab v5.2.1 software (Bio-Rad, Hercules, CA, USA).

HT-29 [2] = experiment: MTT cell viability, HT-29; conditions: 72 h, MTT assay, mean ± SD (n = 6), read-out: half-maximal inhibitory concentration (IC50) HT-29
Method: The potential cytotoxicity of 24 candidate compounds was initially evaluated at a single concentration level (5 μM). Then a full dose-response curve was plotted for each compound against different colorectal cancer cell lines (HCT116 and HT-29) by MTT assay after 72 h treatments. 4-hydroxycoumarin, OSU-CG5, and OSU-CG12 were used as positive controls. […] Compounds 9b, 9c, 9f, 9i, 11b, and 11c were selected for further studies to determine the full dose-response survival curves using different concentrations (0.1–20 µM) against CRC cell lines and normal fibroblast cell line (F180) at different time points (Fig. 2A–2F and supplementary material Page S63 and S64).
Human colorectal carcinoma cell lines (HCT116) and (HT-29) were obtained from the European Collection of Cell Cultures (ECACC, UK). The cell lines were cultured in Roswell Park Memorial Institute medium (RPMI-1640, Sigma-Aldrich-St. Louis, MO, USA) supplemented with 10% fetal bovine serum (Sigma-Aldrich-St. Louis, MO, USA) and 1% penicillin/streptomycin (Sigma-Aldrich- Louis, MO, USA). F180 cell line (Human Normal Fibroblast), was kindly given by professor Ekkehard Dikomey (University Cancer Center, Hamburg University, Hamburg, Germany) and were cultured in Dulbecco’s Modified Eagle’s medium (DMEM, Sigma-Aldrich-St. Louis, MO, USA) supplemented with 10% fetal bovine serum (Sigma-Aldrich-St. Louis, MO, USA) and 1% penicillin/streptomycin (Sigma-Aldrich- Louis, MO, USA). All cell incubations were done at 37 °C in a humidified atmosphere of 5% CO2.
Cell viability was assessed using, 3-(4,5-dimethylthiazol-2-yl)-2,5-diphenyltetrazolium bromide (MTT) assay as previously described. In summary, cancer cell lines or F180 were seeded in complete medium at the density of 3 × 10^3/well and 5 × 10^3/well respectively in 96 well flat-bottom plates. After 24 h, cells were incubated with the candidate compounds at the indicated concentration for (24, 48 or 72 h). DMSO was used as vehicle control and 4-Hydroxycoumarin was purchased from (Sigma-Aldrich, St. Louis, MO, USA) and Cisplatin from Hospira UK Ltd. At the end of treatment, the media were aspirated from each well and incubated with 200 µL of MTT tetrazolium dye (Sigma-Aldrich, St. Louis, MO, USA) at a final concentration of 0.5 mg/ml for 2 h at 37 °C. The reduced MTT crystals were solubilized in 200 µl/well of DMSO and the absorbance was measured at 570 nm using a microplate reader (Thermo-Scientific, Vantaa, Finland).

HT-29 [3] = experiment: Western blot analysis, HT-29; conditions: for expression of LC3A-II and LC3B-II: HT-29 (CRC cell lines); for expression of LC3A-II and LC3B-II / p-mTOR and p-p70S6K levels: 72 h; for AMPK activation through phosphorylation / Akt phosphorylation / PARP cleavage: HT-29, 72 h
Method: as §1, §3, §4

[4] = system: Caspase 3/7 activities in HCT116 cells; experiment: Caspase 3/7 activity assay, HCT116; conditions: HCT116, 72 h
Method: as §1, §2

[5] = HCT116, higher concentrations, except at doses 1 and 2 µM where induced p-mTOR was observed

Cc1cc(=O)oc2cc(Nc3nc(-c4ccc(Br)cc4)cs3)ccc12 [Compound 9b, 7-(4-(4-Bromophenyl)thiazol-2-ylamino)-4-methyl-2H-chromen-2-one]
activation of caspases (caspase 3/7) [1]: significant
expression of LC3A-II and LC3B-II (HCT116; 72 h, Western blot): induced the expression of LC3A-II and LC3B-II
p-mTOR and p-p70S6K levels (HCT116; HCT116, 0.5 µM, 72 h, Western blot): initial increase
AMPK activation through phosphorylation (HCT116; HCT116, 72 h, Western blot): enhancement of AMPK activation
PARP cleavage (HCT116; HCT116, 72 h, Western blot): induced PARP cleavage
expression of β-TrCP and cyclin D (HCT116; HCT116, 72 h, Western blot): dose-dependent downregulation
protein expression level of Bcl-2 (HCT116; HCT116, 72 h, Western blot): reduced
p-mTOR and p-p70S6K levels (HCT116; [5]): decrease
IC50 (HT-29 [2]): 380 ± 44 nM
IC50 (HT-29 [2]; Homo sapiens, HT-29, 72 h): 530 nM
expression of LC3A-II and LC3B-II (HT-29 [3]): induced the expression of LC3A-II and LC3B-II
p-mTOR and p-p70S6K levels (HT-29 [3]; HT-29, 0.5 µM): initial increase
AMPK activation through phosphorylation (HT-29 [3]): enhancement of AMPK activation
Akt phosphorylation (HT-29 [3]): inhibition of Akt phosphorylation
PARP cleavage (HT-29 [3]): induced PARP cleavage
p-mTOR and p-p70S6K levels (HT-29 [3]; HT-29, higher concentrations): decrease
activation of caspases (caspase 3/7) [4]: significant

Cc1cc(=O)oc2cc(Nc3nc(-c4cccc([N+](=O)[O-])c4)cs3)ccc12 [Compound 9f, 4-Methyl-7-(4-(3-Nitrophenyl)thiazol-2-ylamino)-2H-chromen-2-one]
activation of caspases (caspase 3/7) [1]: minimal
expression of LC3A-II and LC3B-II (HCT116; 72 h, Western blot): induced the expression of LC3A-II and LC3B-II
AMPK activation through phosphorylation (HCT116; HCT116, 72 h, Western blot): enhancement of AMPK activation
protein expression level of Bcl-2 (HCT116; HCT116, 72 h, Western blot): reduced
Akt phosphorylation (HCT116; HCT116, high concentrations, 72 h, Western blot): induced Akt phosphorylation
p-mTOR and p-p70S6K levels (HCT116; [5]): decrease
IC50 (HT-29 [2]): 3960 ± 506 nM
IC50 (HT-29 [2]; Homo sapiens, HT-29, 72 h): 2560 nM
expression of LC3A-II and LC3B-II (HT-29 [3]): induced the expression of LC3A-II and LC3B-II
AMPK activation through phosphorylation (HT-29 [3]): enhancement of AMPK activation
Akt phosphorylation (HT-29 [3]): inhibition of Akt phosphorylation
PARP cleavage (HT-29 [3]): PARP cleavage only in HT-29 cells at the highest tested dose
p-mTOR and p-p70S6K levels (HT-29 [3]; HT-29, higher concentrations): decrease
activation of caspases (caspase 3/7) [4]: significant
